Assays:
[1] = tested on: Thy1+CD24+Lin− CSC-enriched cells from MMTV-Wnt-1 breast tumors; assay: In vitro colony assay (clonogenic survival), CSC-enriched cells; assay type: cell-based, mouse
Source text: Given the overexpression of genes involved in GSH synthesis by CSCs, we wished to assess the sensitivity of these cells to ROS elevation via pharmacologic depletion of GSH. Exposure of Thy1^+CD24^+Lin″ CSC-enriched cells to Buthionine Sulfoximine (BSO), which inhibits glutamate-cysteine ligase, decreased their colony forming ability by approximately three fold (FIG. 4d). Finally, we asked if GSH depletion would radiosensitize CSCs. […] The mechanism leading to low ROS levels in some CSCs appears to be at least partially due to the increased production of free radical scavengers. […] The low ROS subset found in the various stem cell populations may also represent a quiescent subpopulation. […]
Cells were analyzed, collected by FACS, and injected into recipient mice as described with minor modifications from mouse mammary glands, human breast cancers, human head and neck cancers, and MMTV-Wnt-1 mouse tumors. […] For intracellular ROS analysis, cells were loaded with 10 μM DCF-DA (Invitrogen), incubated at 37° C. for 30 min, and immediately analyzed by flow cytometry. […] DNA damage was evaluated using the single-cell gel electrophoresis assay under alkaline conditions. […] After reverse transcription, genes were pre-amplified (22 cycles) using the same Taqman primers (Applied Biosystems) used for quantification. Products were analyzed using qPCR DynamicArray microfluidic chips (Fluidigm). […]

[2] = tested on: “Not Thy1+CD24+” Lin− non-tumorigenic cells (NTCs) from MMTV-Wnt-1 breast tumors; assay: In vitro colony assay (clonogenic survival after ionizing radiation), non-tumorigenic cells; assay type: cell-based, mouse; conditions: 10 mM tempol for 15 minutes prior to irradiation, drug then removed; FIG. 4c
Source text: In order to pharmacologically manipulate ROS levels separately in CSCs and NTCs, we employed in vitro culture conditions that allowed both cell populations to produce colonies upon co-culture with irradiated feeder cells. […] When exposed to 2 Gy, a dose commonly administered clinically during daily treatments of breast cancer patients, 2.0-fold+/−0.2 more CSC-enriched colonies survived than NTC colonies. Next, we attempted to radioprotect NTCs by exposing them to the nitroxide antioxidant tempol.
Cells were analyzed, collected by FACS, and injected into recipient mice as described with minor modifications from mouse mammary glands, human breast cancers, human head and neck cancers, and MMTV-Wnt-1 mouse tumors. […] For intracellular ROS analysis, cells were loaded with 10 μM DCF-DA (Invitrogen), incubated at 37° C. for 30 min, and immediately analyzed by flow cytometry. […] DNA damage was evaluated using the single-cell gel electrophoresis assay under alkaline conditions. […] After reverse transcription, genes were pre-amplified (22 cycles) using the same Taqman primers (Applied Biosystems) used for quantification. Products were analyzed using qPCR DynamicArray microfluidic chips (Fluidigm). […] After 24-48 hrs, the media was replaced with serum-free Epicult B, and colonies counted ˜7 days later. […] Levels of significance were determined by Student's t-tests using (=0.05. […]

SMILES	Clonogenic survival after ionizing radiation (radiosensitization) ([1]; 1 mM BSO 24 hour pretreatment, removed prior to irradiation, 3 Gy, FIG. 4e)	Decrease in colony forming ability ([1]; 24 hour pre-treatment with 1 mM BSO, no irradiation, FIG. 4d)	Clonogenic survival of NTCs after irradiation (radioprotection) [2]
CCCCS(=N)(=O)CC[C@H](N)C(=O)O (stereo partly drawn) [BSO, L-S,R-Buthionine Sulfoximine]	significant radiosensitization	approximately three	
CC1(C)CC(O)CC(C)(C)N1[O] [tempol]			radioprotected NTCs, and resulted in survival levels similar to those seen in the CSC-enriched population

Reference: patent publication US20110124032A1, “Methods and Compositions for Treating Carcinoma Stem Cells” (priority 2008, published 2011)
